According to EP1509285B1, “SYNERGISTIC COMPOSITION OF TRANS-TETRACOS-15-ENOIC ACID AND APOCYNIN AND USE THEREOF” (COUNCIL OF SCIENTIFIC AND INDUSTRIAL RESEARCH, priority 2002, dated 2003):

Legend:
[1] = test system: CCl4 induced hepatic injury; experiment: Hepatoprotective activity (in vivo) against CCl4 induced hepatic injury; settings: rats; for Hepatic parameters Glutathione / Hepatic parameters Lipid peroxidation / Serum parameters ALP / Serum parameters Bilirubin / Serum parameters Triglycerides / Serum parameters GOT / Serum parameters GPT: 50 mg kg-1 p.o. at 48h, 24h, 2h before and 6h after CCl4 0.5 ml kg-1 p.o.; for Serum parameters GOT / Serum parameters GPT: unit is µmole pyruvate/min/L; for hepatoprotective activity percent, ALP / hepatoprotective activity percent, Bilirubin / hepatoprotective activity percent, GOT / hepatoprotective activity percent, GPT / hepatoprotective activity percent, Glutathione / hepatoprotective activity percent, Lipid peroxidation / hepatoprotective activity percent, Triglycerides: CCl4, 50 mg kg-1 p.o., H = [1-(TC-V/VC-V)] × 100
Method: i. Animals: The pharmacological studies are conducted on Wistar albino rats (150-180g) and Swiss albino mice (25-30g) of either sex, colony - bred in the Institute's animal house. After procurement, all the animals are divided into different groups and are left for one week for acclimatization to experimentation room and are maintained on standard conditions (23±2°C, 60-70 % relative humidity and 12 h photo period). The animals are fed with standard rodents pellet diet and water ad libitum. There are six animals in each group except for general behaviour and acute toxicity studies where ten animals are used in each group.
Carbon tetrachloride (CCl4): CCl4 is one of the most powerful hepatotoxins (in term of severity of injury). It causes toxic necrosis, which leads to biochemical changes having clinical features similar to those of acute viral hepatitis (Vogel, 1977, Bramanti et. al., 1978, Kumar et. al., 1992). Liver injury is produced by administration of CCl4 mixed with liquid paraffin. Animals are given single dose of CCl4 (50 µl.kg^-1, p.o.) in acute single treatment and (0.5 ml.kg^-1, p.o.) in case of multitreatment with drug. It is administered orally (p.o) by gastric intubation. The control animals received the equal volume of liquid paraffin. (Table 3, 4).
Freshly prepared suspension (1%, w/v) in 0.2% gum acacia in normal saline is used for all the experiments except for toxicity studies where (10 %, w/v) suspension is used. Silymarin suspension (1%, w/v) in 0.2 % gum acacia is used as a reference standard (positive control).
Treatment of test material before and after hepatotoxin: The doses of TCA and APO individually and in mixture, silymarin (50 mg/kg, p.o. each) and vehicle (normal saline) are fed to different groups of rats at 48 hours, 24 hours and 2 hours before and 6 hours after hepatotoxin (CCl4 , 0.5 ml.kg^-1, p.o.) intoxication. Blood is collected from orbital sinus in all the animals 18 hours after last treatment and serum separated for different estimations. All the animals are then killed by decapitation, their livers are quickly excised, cleaned of adhering tissue, weighed and homogenised in phosphate buffer saline for the analysis of hepatic parameters (Agarwal and Mehendale, 1983, Klingensmith and Mehendale, 1982, Zimmerman, 1973, Edmondson and Peter, 1985, Mitchell, et al, 1973). (Table 3-4).
• GPT and GOT: Pyruvate formed by transamination reaction is determined spectrophotometrically after reaction with 2,4-dinitrophenylhydrazine (Reitman and Frankel, 1957). • ALP : p-nitrophenol formed in alkaline medium is measured spectrophotometrically using p-nitrophenyl phosphate as substrate (Walter and Schutt, 1974). • Bilirubin : Total bilirubin is measured by diazotization reaction with NaNO2 (Malloy and Evelyn, 1937) • Triglycerides : Triglycerides from serum are extracted with isopropanol and sopanified with KOH. The liberated glycerol is converted to formaldehyde by periodate and determined after reaction with acetyl acetone. Triolein is used as standard (Neri and Firings, 1973). • Glutathione: It is determined after deproteination by reaction with DTNB (Ellman 1959 as modified by David 1987). • Lipid peroxidation: Thiobarbituric acid reacting substances are determined spectrophotometrically at 535 nm. Buege. and Aust. (1978).
Hepatoprotective activity (H) is calculated by the following equation: H = [1-(TC-V/VC-V)] × 100 [formula]
Where TC, VC, and V are drug + toxin, vehicle + toxin and vehicle treated groups of animals respectively.

[2] = test system: galactosamine, paracetamol and CCl4 as hepatotoxins; experiment: Earlier RRL Jammu study: hepatoprotective effect against galactosamine, paracetamol and CCl4 as hepatotoxins, silymarin as reference; assay type: in vivo; settings: synthesized constituent; silymarin as reference material
[3] = Table 4 (own control groups), mean ± S. E.

COc1cc(C(C)=O)ccc1O [APO, Apocynin]
Hepatic parameters Glutathione [1, 3]: 4.44±0.26 µ mole GSH/g liver | Hepatic parameters Lipid peroxidation [1, 3]: 48.12±2.28 n moles MDA/g liver | Serum parameters ALP [1, 3]: 26.66±2.06 µ mole ofp-nitrophenol formed/min/ L | Serum parameters Bilirubin [1, 3]: 0.37±0.01 mg % | Serum parameters Triglycerides [1, 3]: 28.00±2.39 mg % | Serum parameters GOT [1, 3]: 489.39±66.82 Units | Serum parameters GPT [1, 3]: 838.58±69.65 Units | hepatoprotective activity percent, ALP ([1]; Table 4): (86.05) percent | hepatoprotective activity percent, Bilirubin ([1]; Table 4): (48.94) percent | hepatoprotective activity percent, GOT ([1]; Table 4): (39.31) percent | hepatoprotective activity percent, GPT ([1]; Table 4): (47.86) percent | hepatoprotective activity percent, Glutathione ([1]; Table 4): (40.73) percent | hepatoprotective activity percent, Lipid peroxidation ([1]; Table 4): (42.77) percent | hepatoprotective activity percent, Triglycerides ([1]; Table 4): (36.68) percent

CCCCCCCC/C=C/CCCCCCCCCCCCCC(=O)O [TCA, trans-tetracos-15-enoic acid]
Hepatic parameters Glutathione ([1]; Table 3, mean ± S.E.): 5.35±0.51 µ mole GSH/g liver | Hepatic parameters Lipid peroxidation ([1]; Table 3, mean ± S.E.): 46.88±2.58 n moles MDA/g liver | Serum parameters ALP ([1]; Table 3, mean ± S.E.): 28.72±3.90 µ mole of p-nitrophenol formed/min/ L | Serum parameters Bilirubin ([1]; Table 3, mean ± S.E.): 0.35±0.02 mg % | Serum parameters Triglycerides ([1]; Table 3, mean ± S.E.): 23.53±1.77 mg % | Serum parameters GOT ([1]; Table 3, mean ± S.E.): 409.73±46.57 Units | Serum parameters GPT ([1]; Table 3, mean ± S.E.): 324.84±42.09 Units | hepatoprotective activity percent, ALP ([1]; Table 3): (81.78) percent | hepatoprotective activity percent, Bilirubin ([1]; Table 3): (55.55) percent | hepatoprotective activity percent, GOT ([1]; Table 3): (62.16) percent | hepatoprotective activity percent, GPT ([1]; Table 3): (74.63) percent | hepatoprotective activity percent, Glutathione ([1]; Table 3): (52.92) percent | hepatoprotective activity percent, Lipid peroxidation ([1]; Table 3): (64.33) percent | hepatoprotective activity percent, Triglycerides ([1]; Table 3): (66.05) percent | hepatoprotective effect against galactosamine, paracetamol and CCl4 as hepatotoxins [2]: dose related hepatoprotective effect
